Values of other authors, collected in patent US20110082407A1, “Combination Therapies for the Treatment of Obesity” (priority 2009, published 2011).

Legend:
[1] = literature studies
[2] = in vivo

Compound | weight loss of body weight for drug compared with placebo [1] | clinically significant side effect limiting clinical use [2] | solubility in water
CC(C)CC(N(C)C)C1(c2ccc(Cl)cc2)CCC1 (centres unmarked) [sibutramine] | about 5% | can cause hypertension | –
CCNC(C)Cc1cccc(C(F)(F)F)c1 (centres unmarked) [fenfluramine] | – | caused heart-valve complications | –
CCCCCCCCCCC[C@@H](C[C@@H]1OC(=O)[C@H]1CCCCCC)OC(=O)[C@H](CC(C)C)NC=O [orlistat] | about 5% | GI side effects | –
CCN[C@@H](C)Cc1cccc(C(F)(F)F)c1 [dexfenfluramine] | about 5% | suspected heart valvulopathy | –
triacetyl-beta-cyclodextrin | – | – | insoluble
